Assay results reported in patent publication US6787359B1, “Gene transfer methods” (Takara Shuzo Co., Ltd., priority 1998, dated 2004).

Key:
[1] = tested on: L1210 cells; assay: Eco-EGFP gene transfer with laminin and virus-binding substance, flow cytometry; type: cell-based, mouse; details: no CH-296/CH-271
Description: Mouse laminin (Gibco) or human laminin (Takara Shuzo) was used in combination with a functional substance having an activity of binding to a virus to carry out gene transfer experiment. A 24-well non-treated microplate for cell culture (Falcon) used in the experiment was coated with these functional substances according to the following two methods.
The cocktail method: A mixture of two functional substances is added to the plate. The plate is allowed to stand at 4° C. overnight. The plate is blocked with 2% BSA at 37° C. for 20 minutes and then washed with PBS.
The pre-coating method: A solution of a functional substance having an activity of binding to a virus is added to the plate. The plate is allowed to stand at 4° C. overnight. The solution is removed. A laminin solution is added to the plate. The plate is incubated at 37° C. for 2 hours, blocked with 2% BSA, and then washed with PBS.
0.5 ml of the solution of the functional substance was used to coat each well. 10^5 L1210 cells and 0.5 ml of Eco-EGFP virus supernatant (10^5 cfu/ml) were added to the well. The plate was incubated for 24 hours. After incubation, the cells were collected by using a cell detachment buffer (Bio Whittaker) and washed. EGFP-expressing cells were analyzed by flow cytometry using FACSVantage (Becton Dickinson) at an excitation wavelength of 488 nm and an emission wavelength of 515-545 nm. The gene transfer efficiency (the ratio of EGFP-expressing cells to total cells) was calculated.

[2] = tested on: mouse leukemia L1210 cells; assay: Effect of sugar chain-cleaving enzymes on CH-271/laminin plates, PM5neo gene transfer, G418-resistant cells; type: cell-based
Description: A 96-well microplate was coated using 50 μl/well of a mixture containing 5 μg/ml of mouse laminin and 80 μg/ml of CH-271 as described in Example 5. Effects of treatment of the plate with various enzymes having activities of cleaving sugar chains on gene transfer efficiency were examined.
Plates were treated with enzymes as follows: Enzyme solutions containing 500 mU/ml O-glycanase (endo-α-N-acetylgalactosaminidase, Seikagaku Corp.), 500 mU/ml endoglycosidase H (endo-β-N-acetylglucosaminidase H, Seikagaku Corp.), 250 mU/ml endo-β-galactosidase (Seikagaku Corp.) and 2 mU/ml α-mannosidase (Seikagaku Corp.) in 50 mM citrate-phosphate buffer (pH 5.0) were prepared. An enzyme solution containing 250 mU/ml glycopeptidase F (peptide: N-glycosidase F, Takara Shuzo) in 100 mM tris-hydrochloride buffer (pH 8.6) was prepared. 50 μl each of the enzyme solutions was dispensed in each well for reacting at 37° C. for 20 hours. The plate was then washed three times with PBS and then used for viral infection experiments. 10^4 mouse leukemia L1210 cells grown in RPMI 1640 medium supplemented with 10% FCS, 50 units/ml penicillin and […], and 50 μl of PM5neo virus supernatant (10^4 cfu/ml) were added to each well of the microplate. The plate was incubated for 24 hours. […] G418-resistance cells were assessed as described in Example 3.

[3] = tested on: mouse leukemia L1210 cells; assay: Gene transfer with PM5neo virus on coated plates, G418-resistant cells by WST-1 absorbance; type: cell-based; details: for Absorbance difference (450 nm-650 nm), G418-resistant cells: Experiment 2
Description: 50 μl of […] solution of H-271, H-296, C-274, CH-271, CH-296, ColV, human basic fibroblast growth factor (bFGF; Progen), tenascin (Gibco) or epidermal growth factor (EGF; Takara Shuzo), or 50 μl of 2% bovine serum albumin (BSA, Sigma) was added to each well of a 96-well non-treated microplate for cell culture (Falcon). The plate was allowed to stand at 4° C. overnight and then washed twice with phosphate buffered saline (PBS; Roman Kogyo). Alternatively, after the plate was treated as described above, 0.1 ml of 4 mg/ml solution of 1-ethyl-3-dimethylaminopropylcarbodiimide hydrochloride (Sigma) in sterile pure water was dispensed to each well. The reaction was allowed to proceed at 37° C. for 2 hours. The plate was washed extensively with pure water to prepare a carbodiimide-treated plate. These plates were stored at 4° C. until viral infection experiments were conducted.
10^4 mouse leukemia L1210 cells (ATCC CCL-219), which had been grown in RPMI 1640 medium (Bio Whittaker) supplemented with 10% FCS, 50 units/ml penicillin and 50 μg/ml streptomycin, and 50 μl of PM5neo virus supernatant (10^4 cfu/ml) were added to the well of the microplate. After the plate was incubated for 24 hours, the medium was changed to the same medium containing G418 (Gibco) at a final concentration of 0.75 mg/ml, and the plate was then incubated for additional 48 hours. G418-resistance cells were assessed according to the method as described in S. Kim et al. [Gene Therapy, 3:1018-1020 (1996)] with a partial modification in which color developed using Premix WST-1 reagent (Takara Shuzo) was measured as absorbance at 450 nm. […] Absorbance at 450 nm and 650 nm was then measured using a microplate reader, and the difference (450 nm-650 nm) was calculated. The value obtained using a plate coated with 2% BSA without carbodiimide treatment was defined as background.

[4] = tested on: L1210 cells; assay: Eco-EGFP gene transfer on plates with covalently immobilized CH-271 and (Mannose)9-(GlucNAc)2-Asn; type: cell-based, mouse; details: wells with sugar chain and CH-271 immobilized
Description: A microplate to which CH-271 and (Mannose)9-(GlucNAc)2-Asn were immobilized through covalent bonds was prepared. […] 50 μl each of solutions containing 2% BSA or 80 μg/ml of CH-271 as well as (Mannose)9-(GlucNAc)2-Asn at a varying concentration was added to each well of the activated 96-well Carboplate. The plate was subjected to immobilization reaction at 37° C. for 2 hours. The plate was blocked using 0.2% glycine solution at 4° C. for 15 hours and then used for the following gene transfer experiments.
10^3 L1210 cells and 0.1 ml Eco-EGFP virus supernatant (10^6 cfu/ml) were added to the well of the microplate. After the plate was incubated for 48 hours, 0.1 ml of fresh RPMI 1640 medium containing FCS, penicillin and streptomycin was added to the well. The plate was incubated for additional 24 hours. The cells were collected and washed. The gene transfer efficiency was calculated as described in Example 4.

[5] = tested on: HL-60 cells; type: cell-based, human; details: no washing
Description: (§1) Recombinant retrovirus-producer cells obtained by introducing a retrovirus vector plasmid pLEIN into φCRIP cells were cultured in DMEM containing 10% CS. When the cells grew to semi-confluence in a 10-cm plate, the medium was changed to 7 ml of RPMI 1640 containing 10% FCS or 7 ml of RPMI 1640 containing 5 mM sodium butyrate (Nacalai Tesque) and 10% FCS. After the cells were cultured for 24 hours, supernatants were filtered through 0.45 μm filters to obtain virus supernatants. The titer of the virus supernatant was determined as described in Example 2. The titer of the virus supernatant without sodium butyrate was 3.3×10^4 cfu/ml, whereas the titer of the virus supernatant containing 5 mM sodium butyrate was 2×10^6 cfu/ml.
HL-60 cells were used as target cells. 0.5 ml of the above-mentioned virus supernatant was added to each well of a plate coated with CH-296 as described in Example 12. The plate was incubated at 37° C. for 3 hours for contacting and binding the virus particles with CH-296. After incubation, the plate was […]. 0.5 ml of RPMI 1640 medium supplemented with 10% FCS containing 5×10^4 HL-60 cells was added to the well. As a control, 5×10^4 HL-60 cells were suspended in 0.5 ml of the above-mentioned virus supernatant and then immediately added to the plate coated with CH-296. These plates were incubated at 37° C. overnight to allow the virus to infect cells. After the incubation, 1 ml of RPMI 1640 medium containing 10% FCS was added to the well. The plate was incubated for additional 48 hours. The cell number was then counted.

[6] = tested on: NIH/3T3 cells; assay: Titer of virus supernatant of producer cells cultured with sodium butyrate; type: cell-based; details: φCRIP/pLEIN producer cells cultured 24 hours with 5 mM sodium butyrate; without: 3.3×10^4 cfu/ml
Description: The titer of the virus supernatant was measured according to a standard method [J. Virol., 62:1120-1124 (1988)] in which the efficiency of transferring a neomycin phosphotransferase gene into NIH/3T3 cells (ATCC CRL-1658) is used as an index. The number of infectious particles contained in 1 ml of the supernatant (cfu/ml) was calculated. The amount of the virus supernatant to be added in the experiments hereinbelow was determined based on the calculated value, i.e., the titer of the supernatant.
as §1

[7] = plate treated with carbodiimide
[8] = Control: cells suspended in supernatant with sodium butyrate, added to CH-296 plate

laminin
Gene transfer efficiency ([1]; laminin 5 μg/ml alone): 4.09%
Gene transfer efficiency ([1]; laminin 10 μg/ml alone): 6.76%
Gene transfer efficiency ([1]; laminin 20 μg/ml alone): 6.89%
Gene transfer-promoting effect of laminin after enzyme treatment (in words) ([2]; treatment of the plate with endoglycosidase H): completely abolished
Gene transfer efficiency after enzyme treatment (in words) ([2]; treatment of the plate with α-mannosidase or glycopeptidase F): decreased the gene transfer efficiency in some degree

Tenascin: tenascin (Gibco)
Absorbance difference (450 nm-650 nm), G418-resistant cells [3, 7]: 0.323 ± 0.037
Absorbance difference (450 nm-650 nm), G418-resistant cells ([3]; plate untreated): 0.060 ± 0.021
Appearance of G418-resistant cells (in words) ([3]; carbodiimide treatment carried out): increased

(Mannose)9-(GlucNAc)2-Asn
Gene transfer efficiency (in words) [4]: increased depending on the concentration of sugar chain used

CCCC(=O)[O-].[Na+] [sodium butyrate]
Cell number (cells/plate) [5, 8]: 4.0 x 10^5 cells/plate
Gene transfer efficiency (%) [5, 8]: 35.46%
Viable cell number relative to supernatant without sodium butyrate ([5]; control group): one fourth
Titer of the virus supernatant [6]: 2×10^6 cfu/ml

bFGF: human basic fibroblast growth factor (Progen)
Absorbance difference (450 nm-650 nm), G418-resistant cells [3, 7]: 0.580 ± 0.046
Absorbance difference (450 nm-650 nm), G418-resistant cells ([3]; plate untreated): 0.425 ± 0.014
Gene transfer efficiency (in words) ([3]; known virus-binding substances, Table 1): increase in gene transfer efficiency was observed
